Test results from US8088804B2, “N-hydroxyamide derivatives possessing antibacterial activity” (Pfizer Inc., priority 2005, dated 2012).
In brackets after ≈: the same amount, converted by molar mass. Read-outs that look alike come from different tables or passages of the source.

How the values were obtained:
E. coli (2) = assay: Susceptibility testing (MIC, CLSI microdilution); format: cell-based, Escherichia coli; conditions: 20 h at 35° C., in µg/mL (unit assumed)
Procedure: (§1) Compounds were tested following the microdilution method of CLSI (Clinical and Laboratory Standards Institute. Methods for dilution antimicrobial susceptibility tests for bacteria that grow aerobically; Approved standard—sixth edition. CLSI document M7-A5, CLSI, Wayne, Pa. 2003). Assays were performed in sterile plastic 96-well microtiter trays with round bottom wells (Greiner).
(§2) Stock solutions of test compounds and control antibiotics were prepared at 10 mg/ml in DMSO. Serial 2-fold dilutions of each drug were performed in a microtiter plate across each row using DMSO as solvent at 100-fold the desired final concentration. Wells in columns #1-11 contain drug and column #12 was kept as a growth control for the organism with no drug. Each well in the mother plate was diluted with sterile deionized water and DMSO, mixed, and volumes of 10 μl distributed to each well in the resulting assay plates.
(§3) Stock cultures were prepared using the Microbank™ method (Pro-Lab Diagnostics) and stored at −80° C. To propagate each strain, one bead was removed from the frozen vial and aseptically streaked onto Trypticase Soy Agar (Difco) which were incubated at 35° C. Standardized inocula were prepared using the direct colony suspension method according to CLSI guidelines (Clinical and Laboratory Standards Institute. Methods for dilution antimicrobial susceptibility tests for bacteria that grow aerobically; Approved standard—sixth edition. CLSI document M7-A5, CLSI, Wayne, Pa., 2003). Isolated colonies were selected from an 18-24 hr agar plate and resuspended in 0.9% sterile saline to match a 0.5 McFarland turbidity standard using a calorimeter (Vitek) at 80% of transmitance. The suspension was used within 15 minutes of preparation.
(§4) Mueller-Hinton Broth (MHB) (Difco) was prepared at a 1.1× concentration and supplemented with Ca++ and Mg++ as recommended by CLSI. For each organism, the standardized suspension was diluted 1:180 into appropriate growth medium in a sterile reservoir. After mixing, wells in the drug-containing assay plates were inoculated with a volume of 90 μl. Thus, for each minimum inhibitory concentration (MIC) determination, each well contains a final volume of 100 μl with an inoculum size of approximately 5×10^5 colony forming units (cfu)/ml and no more than 1% DMSO.
(§5) The completed microtiter plates were incubated 20 h at 35° C. in ambient air. Optical density of each well was determined at 600 nm using a VersaMax Microplate reader (Molecular Devices, Sunnyvale, Calif.). The MIC was defined as the lowest drug concentration causing complete suppression of visible bacterial growth.

E. coli tolC = assay: Susceptibility testing (MIC, CLSI microdilution); format: cell-based, Escherichia coli; conditions: 20 h at 35° C., unit assumed
Procedure: as §1, §2, §3, §4, §5

H. influen. = assay: Susceptibility testing (MIC, CLSI microdilution); format: cell-based, Haemophilus influenzae; conditions: 20 h at 35° C., unit assumed
Procedure: as §1, §2, §3, §4, §5

K. pneu. = assay: Susceptibility testing (MIC, CLSI microdilution); format: cell-based, Klebsiella pneumoniae; conditions: 20 h at 35° C., unit assumed
Procedure: as §1, §2, §3, §4, §5

P. ae LpxC enzyme = P. ae LpxC enzyme (Pseudomonas aeruginosa, UniProt P47205); assay: Enzyme inhibition testing (fluorescamine assay); format: biochemical; conditions: for inhibition at 0.5 µg/mL: @0.5 μg/ml; for inhibition at 10 µg/mL: @10 μg/ml
Chain of P. ae LpxC enzyme (P47205 whole entry): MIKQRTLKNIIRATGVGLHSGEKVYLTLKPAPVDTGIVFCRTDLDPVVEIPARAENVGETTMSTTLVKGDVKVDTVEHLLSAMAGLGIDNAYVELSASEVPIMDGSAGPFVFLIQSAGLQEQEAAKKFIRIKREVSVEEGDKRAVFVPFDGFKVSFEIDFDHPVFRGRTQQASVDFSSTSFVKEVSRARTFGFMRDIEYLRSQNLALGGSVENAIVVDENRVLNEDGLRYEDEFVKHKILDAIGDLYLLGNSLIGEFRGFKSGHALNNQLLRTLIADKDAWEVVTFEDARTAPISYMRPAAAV
Procedure: Compounds were tested based on a published method (Wang W., 2001, Anal Biochem, 290, 338-46) with modifications. Enzyme assays were performed in the assay buffer (50 mM HEPES, pH8, 0.005% Brij, 50 μM ZnSO4, 1 mg/ml BSA) in 96-well V-bottom microtiter plates.
Stock solutions of test compounds and control antibiotics are prepared at 10 mg/ml in DMSO and are diluted in the assay buffer to 6-fold the final testing concentration. 5 μl compound dilution is distributed to the well of the assay plate. EDTA is used as positive control and the final concentration in assay is 12.5 mM.
P. ae LpxC enzyme dilution in the assay buffer is added to the compound in plate and pre-incubated with the compound at room temperature for 10 min. LpxC substrate is added to initiate the enzyme reaction and the final enzyme and substrate concentrations are 1.2 μM and 0.4 mM, respectively. The reaction continues at RT for 4 hrs before diluted with 45 μl of Borate buffer (0.4 M, pH9), followed by addition of 40 μl derivatization reagent (fluorescamine 2 mg/ml DMF). This mixture is incubated at RT for 10 min followed by addition of 150 μl DMF/H2O (1:1). The resulting solution is loaded onto Millipore filter unit (Microcon 10 k MWCO) and spun at 13 k rpm on bench top centrifuge for 15 min. 100 μl of this filtrate is transferred to a low fluorescence clear-bottom 96-well plate (Corning) and the fluorescence is detected at ex360 nm and em465 nm on a Tecan fluorescence plate reader. The percent inhibition is calculated based on EDTA produces 100% inhibition and negative control produces 100% activity.

P. aerug. (2) = assay: Susceptibility testing (MIC, CLSI microdilution); format: cell-based, Pseudomonas aeruginosa; conditions: 20 h at 35° C., in µg/mL (unit assumed)
Procedure: as §1, §2, §3, §4, §5

P. aerug. Hypersuc = assay: Susceptibility testing (MIC, CLSI microdilution); format: cell-based, Pseudomonas aeruginosa; conditions: 20 h at 35° C., Δ efflux, hypersusceptible strain, unit assumed
Procedure: as §1, §2, §3, §4, §5

[1] = @0.1 μg/ml, read-out: ENZYME (percent inhibition)
[2] = read-out: ENZYME (percent inhibition)

| Structure (SMILES) | MIC E. coli (2) (E. coli (2)) | MIC E. coli tolC (E. coli tolC) [µg/mL] | MIC H. influen. (H. influen.) [µg/mL] | MIC K. pneu. (K. pneu.) [µg/mL] | inhibition at 0.1 µg/mL (P. ae LpxC enzyme; [1]) [%] | MIC P. aerug. (2) (P. aerug. (2)) | MIC P. aerug. Hypersuc (P. aerug. Hypersuc) [µg/mL] | inhibition at 0.5 µg/mL (P. ae LpxC enzyme; [2]) [%] | inhibition at 10 µg/mL (P. ae LpxC enzyme; [2]) [%] | inhibition at 0.1 µg/mL (P. ae LpxC enzyme; read-out: ENZYME (percent inhibition), @0.1 μg/ml) [%] | inhibition at 1 µg/mL (P. ae LpxC enzyme; @1 μg/ml, read-out: ENZYME (percent inhibition)) [%] |
| --- | --- | --- | --- | --- | --- | --- | --- | --- | --- | --- | --- |
| CCCc1ccc(-c2ccc(C(=O)NC(C(=O)NO)C(F)(F)F)cc2)cc1 (racemic) [Compound 20, DL-4′-Propyl-biphenyl-4-carboxylic acid (2,2,2-trifluoro-1-hydroxycarbamoyl-ethyl)-amide] | 0.5 | 0.25 (≈ 0.657 µM) | 0.25 (≈ 0.657 µM) | 0.5 (≈ 1.31 µM) | < 10 | 16 | 1 (≈ 2.63 µM) |  |  |  |  |
| CCCc1ccc(-c2ccc(C(=O)NC(CF)C(=O)NO)cc2)cc1 (racemic) [Compound 21, DL-4′-Propyl-biphenyl-4-carboxylic acid (2-fluoro-1-hydroxycarbamoyl-ethyl)-amide] | 16-32 | 4 (≈ 11.6 µM) | 8 (≈ 23.2 µM) | 8 (≈ 23.2 µM) |  | >64 | 16 (≈ 46.5 µM) | 77 |  |  |  |
| CCOc1ccc(-c2ccc(C(=O)NC(C(=O)NO)C(F)(F)F)cc2)cc1 (racemic) [Compound 22, DL-4′-Ethoxy-biphenyl-4-carboxylic acid (2,2,2-trifluoro-1-hydroxycarbamoyl-ethyl)-amide] | 2 | 0.25 (≈ 0.654 µM) | 0.5 (≈ 1.31 µM) | 1 (≈ 2.62 µM) | < 10 | 16-32 | 0.5 (≈ 1.31 µM) |  |  |  |  |
| O=C(NC(C(=O)NO)C(F)(F)F)c1ccc(-c2cc(F)cc(F)c2)cc1 (racemic) [Compound 23, DL-3′,5′-Difluoro-biphenyl-4-carboxylic acid (2,2,2-trifluoro-1-hydroxycarbamoyl-ethyl)-amide] | 16 | 8 (≈ 21.4 µM) | 16 (≈ 42.8 µM) | 16 (≈ 42.8 µM) | 24 | 8 | 2 (≈ 5.34 µM) |  |  |  |  |
| O=C(NC(C(=O)NO)C(F)(F)F)c1ccc(-c2ccsc2)cc1 (racemic) [Compound 24, DL-4-Thiophen-3-yl-N-(2,2,2-trifluoro-1-hydroxycarbamoyl-ethyl)-benzamide] | >64 | 16 (≈ 46.5 µM) | 8 (≈ 23.2 µM) | > 64 | 13 | 32 | 2 (≈ 5.81 µM) |  |  |  |  |
| O=C(NC(C(=O)NO)C(F)(F)F)c1ccc(-c2ccc(F)cc2)cc1 (racemic) [Compound 25, DL-4′-Fluoro-N-(1,1,1-trifluoro-3-(hydroxyamino)-3-oxopropan-2-yl)biphenyl-4-carboxamide] | 8 | 4 (≈ 11.2 µM) | 4 (≈ 11.2 µM) | 16 (≈ 44.9 µM) | 12 | 8-16 | 2 (≈ 5.61 µM) |  |  |  |  |
| CCCc1ccc(-c2ccc(C(=O)N3CS(=O)(=O)CC3C(=O)NO)cc2)cc1 (stereo in doubt) [Compound 17, (S)-N-Hydroxy-3-(4′-propylbiphenylcarbonyl)thiazolidine-sulfone-4-carboxamide] |  | 8 (≈ 19.9 µM) | > 64 | 16 (≈ 39.8 µM) |  | 16 | 2 (≈ 4.97 µM) | 98 |  |  |  |
| CCCc1ccc(-c2ccc(C(=O)NC(CSC)C(=O)NO)cc2)cc1 (stereo in doubt) [Compound 28, (S)-N-(1-(Hydroxyamino)-3-(methylthio)-1-oxopropan-2-yl)-4′-propylbiphenyl-4-carboxamide] | >64 | 32 (≈ 85.9 µM) | > 64 | > 64 | 13 | >64 | > 64 |  |  |  |  |
| CCCc1ccc(-c2ccc(C(=O)NC(CS(C)(=O)=O)C(=O)NO)cc2)cc1 (stereo in doubt) [Compound 29, (S)-N-(1-(Hydroxyamino)-3-(methylsulfone)-1-oxopropan-2-yl)-4′-propylbiphenyl-4-carboxamide] | >64 | ≤ 0.06 | > 64 | 4 (≈ 9.89 µM) | 59 | >64 | 32 (≈ 79.1 µM) |  |  |  |  |
| CCCc1ccc(-c2ccc(C(=O)N3CC[C@H](N=[N+]=[N-])[C@H]3C(=O)NO)cc2)cc1 [Compound 1, (2S,3S)-3-Azido-N-hydroxy-1-(4′-propylbiphenylcarbonyl)pyrrolidine-2-carboxamide] | >64 | 32 (≈ 81.3 µM) | > 64 | > 64 |  | >64 | > 64 | 35 |  |  |  |
| CCCc1ccc(-c2ccc(C(=O)N3CC[C@H](N)[C@H]3C(=O)NO)cc2)cc1 [Compound 2] | 64 | 32 (≈ 87.1 µM) | 16 (≈ 43.5 µM) | 64 (≈ 174 µM) |  |  | 64 (≈ 174 µM) | 65 |  |  |  |
| CCCc1ccc(-c2ccc(C(=O)N3CC[C@H](NS(C)(=O)=O)[C@H]3C(=O)NO)cc2)cc1 [Compound 3, (2S,3S)-N-Hydroxy-3-(methylsulfonamido)-1-(4′-propylbiphenylcarbonyl)pyrrolidine-2-carboxamide] | >64 | 32 (≈ 71.8 µM) | > 64 | > 64 |  | >64 | > 64 | 55 |  |  |  |
| CCCc1ccc(-c2ccc(C(=O)N3CC[C@H](OC)[C@H]3C(=O)NO)cc2)cc1 [Compound 7] |  | 64 (≈ 167 µM) | > 64 | 64 (≈ 167 µM) |  | >64 | 64 (≈ 167 µM) |  | 84 |  |  |
| CCCc1ccc(-c2ccc(C(=O)N3C[C@H](N)[C@@H](O)[C@H]3C(=O)NO)cc2)cc1 [Compound 12] | >64 | > 64 | 32 (≈ 83.5 µM) | > 64 |  |  | 8 (≈ 20.9 µM) | 95 |  |  |  |
| O=C(NO)c1cocc1C(=O)Nc1cccc(SC(F)(F)F)c1 [Compound 32] |  | 64 (≈ 185 µM) | > 64 | > 64 |  | >64 | > 64 |  | < 10 |  |  |
| O=C(NO)[C@H]1N(C(=O)c2ccc(-c3cc(F)cc(F)c3)cc2)CCS1(=O)=O [Compound 36, (S)-3-(3′,5′-Difluorobiphenylcarbonyl)-N-hydroxythiazolidinesulfone-2-carboxamide] | >64 | 0.125 (≈ 0.315 µM) | > 64 | > 64 |  |  | 8 (≈ 20.2 µM) |  |  | 8 |  |
| CCCc1ccc(-c2ccc(C(=O)N3CC[C@@H](O)[C@H]3C(=O)NO)cc2)cc1 [Compound 39] | >64 | 64 (≈ 174 µM) | > 64 | > 64 |  |  | 4 (≈ 10.9 µM) |  |  |  | 95.2 |
